System: ocular apoptotic cells of the zebrafish
Assay: Anti-blue light eye protection efficacy, AO staining of ocular apoptotic cells in zebrafish blue light eye damage model
Format: in vivo
Settings: 62.5 μg/mL, aqueous, 28° C., 1 d, n = 10; model group 45833 ± 4825, normal control 12203 ± 1124
Experimental: Wild-type AB zebrafish at 1 dpf were randomly selected and irradiated with blue light after membrane rupture to establish the zebrafish blue light eye damage model. Model zebrafish with desirable development status were selected at 3 dpf and randomly distributed in 6-well plates, with 30 zebrafish in each well (experimental group) were treated. Different concentrations of guaijaverin (see Table 2 for concentrations) were administered aqueously, and lutein at a concentration of 62.5 μg/mL were used as a positive control, while a normal control group and a model group were also set up, with a volume of 3 mL per well. After 1 d of treatment at 28° C., the zebrafish in each experimental group were stained with AO in the dark for 30 min and washed 3 times with standard dilution water. 10 zebrafish were randomly selected from each experimental group and photographed under a fluorescence microscope. The data were analyzed and collected using Image J software. The fluorescence intensity of ocular apoptotic cells of the zebrafish was statistically analyzed. The anti-blue light eye protection efficacy of guaijaverin was evaluated based on the statistical analysis results of the above indicators. The statistical result was expressed as mean±SE.

CC1=C[C@H](O)CC(C)(C)[C@H]1/C=C/C(C)=C/C=C/C(C)=C/C=C/C=C(C)/C=C/C=C(C)/C=C/C1=C(C)C[C@@H](O)CC1(C)C [Lutein, lutein, reference compound]
Fluorescence intensity of ocular apoptotic cells (pixel, mean ± SE): 21751 ± 2993 pixel

From patent US20250367160A1, “USE OF GUAIJAVERIN IN PREPARATION OF EYE PROTECTION PRODUCT” (Innovation Center of Yangtze River Delta, ZJU, priority 2024, published 2025)
